Literature values in EP3297603B1, “CINEOLE-CONTAINING AQUEOUS COMPOSITION FOR NASAL APPLICATION” (Maria Clementine Martin Klosterfrau Vertriebsgesellschaft …, priority 2015, dated 2017).

Conditions: general property, reference to RÖMPP Chemielexikon

- Löslichkeit in Wasser: in Wasser unlöslich
Compound: CC12CCC(CC1)C(C)(C)O2 [1,8-Cineol, 1,3,3-Trimethyl-2-oxabicyclo[2.2.2]octan]
